# Data from patent publication US20090022675A1, “ESTERS WITH WARMING PROPERTIES” (priority 2007, published 2009).
# Assay: Warming properties: rise in temperature on mixing with water (heat of solution)
# Format: physicochemical
# Conditions: mixed with water; Hest G-18-O maximum when about 60% by weight is used
# Source text: When Hest G-18-O is mixed with water at ambient temperature, there is a rise in temperature. The rise in temperature ranges from about 5 degrees C. to about 15 degrees C.; it also ranges from about 8 degrees C. to about 12 degrees C. This rise in temperature is about 2-3 times more than that obtained with the same weight of glycerine (FIG. 1) or propylene glycol. The temperature rise reaches a maximum of about 12 degrees C. when about 60% by weight of Hest G-18-O is used. This compares to a maximum of only about 5 degrees C. for glycerine or propylene glycol.
# The maximum amount of heat (though not the greatest rise in temperature) is obtained when the Hest G-18-O is dissolved in a large excess of water. If the Hest G-18-O, glycerine or propylene glycol is not anhydrous, some of its heat of solution will already have been dissipated. Correspondingly, smaller amounts of heat will be produced by further dilution.
row,maximum temperature rise,Compound
1,about 5 degrees C.,CC(O)CO (centres unmarked) [propylene glycol]
2,about 5 degrees C.,OCC(O)CO [glycerine]
